The source of these data is ChEMBL document CHEMBL3044610, “Khayanolides, rearranged phragmalin limonoid antifeedants from Khaya senegalensis” (Tetrahedron, 2001).

SMILES strings stand for the structures. Calls of active or inactive are those of the source. The calls are words filed in the database; no cut-off is given here.

Format in all cases: functional, organism-based
The test system of experiment [1] is Spodoptera littoralis. The experiment can be described thus: Antifeedant activity against third-instar larva of Spodoptera littoralis fed on compound-treated Chinese cabbage leaf at 500 ppm by leaf-disk method.
Experiment [2] concerns Spodoptera littoralis. The experiment can be described thus: Antifeedant activity against third-instar larva of Spodoptera littoralis fed on compound-treated Chinese cabbage leaf at 300 ppm by leaf-disk method.
Experiment [3] relates to Spodoptera littoralis. The experiment can be described thus: Antifeedant activity against third-instar larva of Spodoptera littoralis fed on compound-treated Chinese cabbage leaf at 1000 ppm by leaf-disk method.

In the case of `COC(=O)[C@H](O)[C@H]1[C@@]2(C)C[C@]3(O)[C@H]4[C@@H](O[C@]56CC(=O)O[C@H](c7ccoc7)[C@]5(C)CC[C@H]([C@]13C)[C@]46O)[C@H]2O`, the outcome with Spodoptera littoralis [1] was Active. For `C=C1[C@@H]2CC[C@@]3(C)[C@H](c4ccoc4)OC(=O)C[C@]13O[C@H]1CC(=O)C(C)(C)[C@H](C(O)C(=O)OC)[C@]12C` (some centres not stated), in the experiment on Spodoptera littoralis [1], the outcome was Active.

For `CC1(C)C(=O)[C@@H]2C[C@@]34O[C@]2(O)[C@]2(COC(=O)C[C@@H]12)[C@H]3CC[C@]1(C)[C@H]4CC(=O)O[C@H]1c1ccoc1`, the result with Spodoptera littoralis [2] was Active. For `COC(=O)[C@H](O)[C@H]1[C@]2(C)C[C@]3(O)[C@@H](C(=O)[C@H]2O)[C@]2(O)C4=CC(=O)O[C@@H](c5ccoc5)[C@]4(C)CC[C@@H]2[C@]13C`, in the experiment with Spodoptera littoralis [3], the outcome was Active. `C=C1[C@@H]2CC[C@@]3(C)[C@H](c4ccoc4)OC(=O)C[C@]13O[C@H]1CC(=O)C(C)(C)[C@H](CC(=O)OC)[C@]12C`: the outcome with Spodoptera littoralis [1] was Active. As for `COC(=O)[C@H](O)[C@H]1[C@]2(C)C[C@]3(O)[C@H](C(=O)[C@H]2O)[C@]24O[C@]25CC(=O)O[C@H](c2ccoc2)[C@]5(C)CC[C@@H]4[C@]13C`, in the experiment with Spodoptera littoralis [2], the outcome was Active.

Turning to `C=C1[C@@H]2CC[C@@]3(C)[C@H](c4ccoc4)OC(=O)C[C@]13O[C@H]1CC(=O)C(C)(C)[C@H](C(OC(C)=O)C(=O)OC)[C@]12C` (some centres not stated), in the experiment with Spodoptera littoralis [1], the result was Active.
